In ChEMBL document CHEMBL1201862, “PubChem BioAssay data set” (2004):
Activity calls are given as the source filed them. Rule as the data show it, for most assays here: actives have a measured IC50 and inactives only a lower limit.

What was measured:
Type in all cases: functional
Caspase-3 = molecular target: T1, Caspase-3 (Homo sapiens, UniProt P42574);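 also: Dose-response selectivity test against caspase-3 for candidate inhibitors of sentrin-specific proteases (SENPs)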
T1 sequence (P42574 whole entry): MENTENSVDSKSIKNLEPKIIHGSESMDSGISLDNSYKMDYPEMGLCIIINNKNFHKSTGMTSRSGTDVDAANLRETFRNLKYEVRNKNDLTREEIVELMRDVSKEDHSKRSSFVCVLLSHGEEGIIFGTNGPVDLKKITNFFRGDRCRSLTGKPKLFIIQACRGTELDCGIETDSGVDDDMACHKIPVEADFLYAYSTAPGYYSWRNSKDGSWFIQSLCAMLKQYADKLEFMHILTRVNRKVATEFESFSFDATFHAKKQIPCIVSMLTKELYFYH

Protein RecA = molecular target: T2, Protein RecA (Mycobacterium tuberculosis, UniProt P9WHJ3); assay: Fluorescence Cell-Free Homogeneous Dose Retest to Identify Inhibitors of RecA-Intein Splicing Activity. [Related pubchem assays (depositor defined):AID2097, AID2223, AID489010, AID492950]
T2 sequence (P9WHJ3 whole entry): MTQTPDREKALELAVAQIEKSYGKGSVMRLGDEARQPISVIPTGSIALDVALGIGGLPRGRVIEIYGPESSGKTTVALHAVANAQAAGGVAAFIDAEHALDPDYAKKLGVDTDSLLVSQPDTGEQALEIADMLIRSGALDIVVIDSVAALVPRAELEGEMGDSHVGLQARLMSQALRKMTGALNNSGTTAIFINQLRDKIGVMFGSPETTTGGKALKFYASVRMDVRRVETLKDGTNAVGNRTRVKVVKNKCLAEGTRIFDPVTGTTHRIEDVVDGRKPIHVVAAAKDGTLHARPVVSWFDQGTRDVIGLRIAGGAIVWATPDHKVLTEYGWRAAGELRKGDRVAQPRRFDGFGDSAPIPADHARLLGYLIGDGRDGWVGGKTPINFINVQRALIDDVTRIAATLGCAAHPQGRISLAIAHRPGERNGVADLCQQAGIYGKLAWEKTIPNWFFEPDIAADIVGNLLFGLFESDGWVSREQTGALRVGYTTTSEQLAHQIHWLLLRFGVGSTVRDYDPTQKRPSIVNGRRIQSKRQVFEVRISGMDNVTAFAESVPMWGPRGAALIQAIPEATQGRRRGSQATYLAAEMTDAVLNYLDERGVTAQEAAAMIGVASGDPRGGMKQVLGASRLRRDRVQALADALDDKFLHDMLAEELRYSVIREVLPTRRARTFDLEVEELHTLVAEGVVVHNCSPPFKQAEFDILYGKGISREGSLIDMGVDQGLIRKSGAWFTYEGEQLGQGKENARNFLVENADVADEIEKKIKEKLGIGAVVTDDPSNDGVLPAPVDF

[1] = molecular target: T3, Sentrin-specific protease 6 (Homo sapiens, UniProt Q9GZR1);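 also: Luminescence-based dose-response confirmatory assay of SENP6 inhibition, following up an ultra-high-throughput screen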
T3 sequence (Q9GZR1 whole entry): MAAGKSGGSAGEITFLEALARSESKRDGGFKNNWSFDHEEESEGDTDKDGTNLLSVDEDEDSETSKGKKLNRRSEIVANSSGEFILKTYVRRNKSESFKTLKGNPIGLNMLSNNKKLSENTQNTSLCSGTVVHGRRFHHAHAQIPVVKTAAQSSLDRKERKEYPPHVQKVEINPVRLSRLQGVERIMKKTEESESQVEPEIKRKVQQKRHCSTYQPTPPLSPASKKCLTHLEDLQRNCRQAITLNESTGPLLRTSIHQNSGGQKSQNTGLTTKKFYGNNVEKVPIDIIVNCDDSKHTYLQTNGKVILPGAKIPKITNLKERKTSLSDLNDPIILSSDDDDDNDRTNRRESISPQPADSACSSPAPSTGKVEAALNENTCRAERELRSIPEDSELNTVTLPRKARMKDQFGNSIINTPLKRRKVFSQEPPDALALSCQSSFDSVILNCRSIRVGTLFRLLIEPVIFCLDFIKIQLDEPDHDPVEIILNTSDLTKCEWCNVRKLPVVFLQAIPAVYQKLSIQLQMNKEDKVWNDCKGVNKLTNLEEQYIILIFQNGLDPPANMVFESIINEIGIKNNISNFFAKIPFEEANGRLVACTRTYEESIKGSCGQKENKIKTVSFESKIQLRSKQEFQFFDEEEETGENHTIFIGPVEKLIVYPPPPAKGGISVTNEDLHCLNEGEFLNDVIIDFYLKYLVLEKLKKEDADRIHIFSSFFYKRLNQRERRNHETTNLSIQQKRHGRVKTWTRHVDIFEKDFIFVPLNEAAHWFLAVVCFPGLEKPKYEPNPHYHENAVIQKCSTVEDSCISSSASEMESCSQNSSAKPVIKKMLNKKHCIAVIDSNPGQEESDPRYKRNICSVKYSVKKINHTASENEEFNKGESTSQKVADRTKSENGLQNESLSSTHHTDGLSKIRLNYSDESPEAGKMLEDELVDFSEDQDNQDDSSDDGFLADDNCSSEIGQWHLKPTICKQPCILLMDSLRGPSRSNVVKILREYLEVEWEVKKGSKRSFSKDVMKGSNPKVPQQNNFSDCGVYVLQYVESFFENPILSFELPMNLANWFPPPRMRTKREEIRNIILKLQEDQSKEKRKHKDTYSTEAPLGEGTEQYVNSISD

COc1ccc(NC(=S)Nc2ccc3nsnc3c2)cc1
active: IC50 (Caspase-3) 7.54 µM | EC50 (Protein RecA) 17.5 µM | IC50 [1] 2.3 µM

CC(C)(C)c1cc[n+](C2=C([N-]S(=O)(=O)c3ccccc3)C(=O)c3ccccc3C2=O)cc1
active: IC50 (Caspase-3) 76.7 µM | EC50 (Protein RecA) 9.39 µM | IC50 [1] 8.45 µM

O=C1C(=O)c2ccccc2C(O)=C1CCCCl
active: IC50 (Caspase-3) 37.8 µM | EC50 (Protein RecA) 6.39 µM | IC50 [1] 7.23 µM

O=C1C=C(Nc2ccccc2C(=O)O)c2ccccc2C1=O
active: IC50 (Caspase-3) 4.8 µM | EC50 (Protein RecA) 2.34 µM | IC50 [1] 2 µM
